We go through eleven molecules from US20100168079A1 (priority 2008, published 2010).

This test deals with T1, human S1P1 receptors (Homo sapiens, UniProt P21453).
T1 construct: myc (N); expressed in transfected cells; host or cells: HeLa (human cervix carcinoma, ATCC CCL2), HeLa-S1P1/Gα16 cell clone 1
Kind of test: Human S1P1 Receptor Calcium FLIPR Antagonist Assay (HeLa Gα16 S1P1). The note with it: relative antagonism of Ca2+ signal evoked by probing agonist GNF-AC-1 at EC80; HeLa-S1P1/Gα16 cells. Format: cell-based. The procedure:
Human S1P1 Receptor Calcium FLIPR Antagonist Assay
The cells are plated in 384 well black plates (10′000 cells per well). […] After washing, the cells are transferred to the FLIPR. The test compounds are added at different concentrations […]) in HBSS in the presence of 0.1% BSA and changes in fluorescence are recorded (indication of agonism). The probing agonist is added 20-30 minutes afterwards to the wells at a concentration giving 80% of the maximal activity (EC80). After each addition, time points are collected as follows: 20 time points (2 seconds) before the addition of the agonist (Fmin) and 60 time points (1 or 2 seconds) after the addition of the probing agonist. This allows the determination of the maximal fluorescence (Fmax). The ratio (Fmax-Fmin)/Fmin is plotted against the log of the concentration of the test compounds and the IC50 (relative antagonism) is calculated using the XLfit-4 software. […] A concentration-response curve of the probing agonist is determined on each plate in parallel.

T1 sequence (P21453 whole entry): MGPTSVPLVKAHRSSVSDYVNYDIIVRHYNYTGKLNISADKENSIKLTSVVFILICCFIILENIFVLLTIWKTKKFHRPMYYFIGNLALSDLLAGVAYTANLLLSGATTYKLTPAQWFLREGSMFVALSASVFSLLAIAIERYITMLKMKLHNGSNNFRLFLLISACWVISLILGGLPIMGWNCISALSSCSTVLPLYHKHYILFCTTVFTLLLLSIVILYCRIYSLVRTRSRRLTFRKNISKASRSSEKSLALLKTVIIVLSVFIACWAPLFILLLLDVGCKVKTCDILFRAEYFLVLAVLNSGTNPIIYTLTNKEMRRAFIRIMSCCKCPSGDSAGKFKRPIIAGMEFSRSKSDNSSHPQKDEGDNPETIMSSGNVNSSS

By IC50 is commonly meant the midpoint of a concentration-inhibition curve. As to `Cc1cc(C(Nc2cccc(-c3cc(C)c(C(=O)N[C@@H](C)C(=O)O)c(C)c3)c2)C(C)C)ccc1Cl` (stereo partly drawn) [Example 90, (S)-2-({3′-[1-(4-Chloro-3-methyl-phenyl)-2-methyl-propylamino]-3,5-dimethyl-biphenyl-4-carbonyl}-amino)-propionic acid], the IC50 worked out at 10 nM.

With `Cc1cc(C(Nc2cccc(-c3ccc(C(=O)N(C)[C@@H](C)C(=O)O)c(C(F)(F)F)c3)c2)C(F)(F)F)ccc1Cl` (stereo partly drawn) [Example 91, (S)-2-({3′-[1-(4-Chloro-3-methyl-phenyl)-2,2,2-trifluoro-ethylamino]-3-trifluoromethyl-biphenyl-4-carbonyl}-methyl-amino)-propionic acid], the IC50 amounted to 4 nM. On to `Cc1cc(C(Nc2cccc(-c3ccc(C(=O)N[C@@H](C)C(=O)O)c(C(F)(F)F)c3)c2)C(F)(F)F)ccc1Cl` (stereo partly drawn) [Example 92, (S)-2-({3′-[1-(4-Chloro-3-methyl-phenyl)-2,2,2-trifluoro-ethylamino]-3-trifluoromethyl-biphenyl-4-carbonyl}-amino)-propionic acid], for which the IC50 came out at 4 nM. Consider `Cc1cc(C(Nc2cccc(-c3ccc(C(=O)N(C)C4(C(=O)O)CC4)c(C(F)(F)F)c3)c2)C(F)(F)F)ccc1Cl` (centres unmarked) [Example 93, 1-({3′-[1-(4-Chloro-3-methyl-phenyl)-2,2,2-trifluoro-ethylamino]-3-trifluoromethyl-biphenyl-4-carbonyl}-methyl-amino)-cyclopropanecarboxylic acid], for which the IC50 came out at 4 nM. Next, `Cc1cc(C(Nc2cccc(-c3ccc(C(=O)N[C@@H](C)C(=O)O)c(Cl)c3)c2)C(F)(F)F)ccc1Cl` (some centres unmarked) [Example 94]: 14 nM; `Cc1cc(C(Nc2cccc(-c3ccc(C(=O)NC4(C(=O)O)CC4)c(Cl)c3)c2)C(F)(F)F)ccc1Cl` (centres unmarked) [Example 95, 1-({3-Chloro-3′-[1-(4-chloro-3-methyl-phenyl)-2,2,2-trifluoro-ethylamino]-biphenyl-4-carbonyl}-amino)-cyclopropanecarboxylic acid]: 14 nM. Next, `Cc1cc([C@H](Nc2cccc(-c3ccc(C(=O)N(C)[C@@H](C)C(=O)O)c(Cl)c3)c2)C(F)(F)F)ccc1Cl` [Example 96, (S)-2-({3-Chloro-3′-[(S)-1-(4-chloro-3-methyl-phenyl)-2,2,2-trifluoro-ethylamino]-biphenyl-4-carbonyl}-methyl-amino)-propionic acid]: 2 nM; `Cc1cc(C(C)(C)Nc2cccc(-c3ccc(C(=O)N[C@@H](C)C(=O)O)c(Cl)c3)c2)ccc1Cl` [Example 97, (S)-2-({3-Chloro-3′-[1-(4-chloro-3-methyl-phenyl)-1-methyl-ethylamino]-biphenyl-4-carbonyl}-amino)-propionic acid]: 1 nM. Next, `Cc1cc(C(C)(C)Nc2cccc(-c3ccc(C(=O)N(C)[C@@H](C)C(=O)O)c(Cl)c3)c2)ccc1Cl` [Example 98, (S)-2-({3-Chloro-3′-[1-(4-chloro-3-methyl-phenyl)-1-methyl-ethylamino]-biphenyl-4-carbonyl}-methyl-amino)-propionic acid]: 4 nM; `CC[C@@H](Nc1cccc(-c2cc(C)c(C(=O)N[C@@H](C)C(=O)O)c(C)c2)c1)c1cc(C)c(Cl)c(C)c1` [Example 101, (S)-2-({3′-[(R)-1-(4-Chloro-3,5-dimethyl-phenyl)-propylamino]-3,5-dimethyl-biphenyl-4-carbonyl}-amino)-propionic acid]: 1 nM. Consider `CC[C@@H](Nc1cccc(-c2cc(C)c(C(=O)NC3(C(=O)O)CC3)c(C)c2)c1)c1cc(C)c(Cl)c(C)c1` [Example 102, 1-({3-[(R)-1-(4-Chloro-3,5-dimethyl-phenyl)-propylamino]-3,5-dimethyl-biphenyl-4-carbonyl}-amino)-cyclopropanecarboxylic acid], for which the IC50 is 1 nM.
